The results in this text go back to ChEMBL document CHEMBL2401733 (Bioorg Med Chem Lett, 2013).

≈ marks a conversion by molar mass, not a printed value.

What is called IC50 is the concentration that gives 50% inhibition. In general, solubility refers to the concentration that dissolves in the medium under given conditions. What is called Papp A→B is the apparent permeability from the apical to the basolateral side of a cell layer. By logP is commonly meant the decadic logarithm of the partition coefficient of the neutral form, usually between octanol and water.

Data set [1] addresses T1, Serine/threonine-protein kinase PLK2 (Homo sapiens, UniProt Q9NYY3).
Description: Inhibition of GST-tagged Plk2 (unknown origin) assessed as inhibition of DEKTDDED phosphorylation at Thr1342 after 60 mins by TR-FRET assay
Data set [2] in a line: Metabolic stability in human liver microsomes assessed as compound remaining at 1 uM after 30 mins. The data set is classed as ADME, Microsome. As to conditions: read-out: Stability. (Liver microsomes are a subcellular fraction often used to study metabolism.)
A short description of data set [3]: Metabolic stability in mouse liver microsomes assessed as compound remaining at 1 uM after 30 mins. Conditions: read-out: Stability; call rule not given here. The data set is classed as ADME, Microsome.
Data set [4] is described as follows: Metabolic stability in rat liver microsomes assessed as compound remaining at 1 uM after 30 mins. Conditions: read-out: Stability. The data set is classed as ADME, Microsome.
In data set [5] the target is Serine/threonine-protein kinase PLK1 (Homo sapiens, UniProt P53350). Put plainly: Inhibition of GST-tagged Plk1 (unknown origin) assessed as inhibition of DEKTDDED phosphorylation at Thr1342 after 60 mins by TR-FRET assay. On the technique in general: In TR-FRET formats the signal depends on donor and acceptor labels being close together.
Chain of Serine/threonine-protein kinase PLK1 (P53350 whole entry): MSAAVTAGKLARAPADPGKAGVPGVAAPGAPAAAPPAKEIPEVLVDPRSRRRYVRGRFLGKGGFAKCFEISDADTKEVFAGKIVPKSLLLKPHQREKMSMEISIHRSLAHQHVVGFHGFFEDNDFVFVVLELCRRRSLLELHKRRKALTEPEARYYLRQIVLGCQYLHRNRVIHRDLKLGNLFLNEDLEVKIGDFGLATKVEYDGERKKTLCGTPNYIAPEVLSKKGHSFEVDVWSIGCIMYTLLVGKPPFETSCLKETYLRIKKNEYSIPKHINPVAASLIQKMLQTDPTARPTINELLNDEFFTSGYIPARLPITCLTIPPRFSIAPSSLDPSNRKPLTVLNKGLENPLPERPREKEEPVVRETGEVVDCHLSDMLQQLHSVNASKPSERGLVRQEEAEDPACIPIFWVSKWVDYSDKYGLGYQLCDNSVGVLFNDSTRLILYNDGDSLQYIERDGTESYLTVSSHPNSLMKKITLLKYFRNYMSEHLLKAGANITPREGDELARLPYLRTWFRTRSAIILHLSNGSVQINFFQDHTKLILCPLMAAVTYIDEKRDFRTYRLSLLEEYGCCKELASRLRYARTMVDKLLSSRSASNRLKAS
Data set [6] can be described thus: Solubility of the compound. Format: physicochemical.
Data set [7] in a line: Apparent permeability across apical to basolateral side in […] MDCK2 cells at 5 uM after 120 mins by LC/MS/MS analysis. Conditions: MDCK. The data set is classed as ADME, cell-based, MDCK-II.
A short description of data set [8]: Lipophilicity, log P of the compound. Format: physicochemical. Conditions: octanol/water.
In data set [9] the target is T1, Serine/threonine-protein kinase PLK2. The source holds these as a separate data set.

T1 sequence (Q9NYY3 whole entry): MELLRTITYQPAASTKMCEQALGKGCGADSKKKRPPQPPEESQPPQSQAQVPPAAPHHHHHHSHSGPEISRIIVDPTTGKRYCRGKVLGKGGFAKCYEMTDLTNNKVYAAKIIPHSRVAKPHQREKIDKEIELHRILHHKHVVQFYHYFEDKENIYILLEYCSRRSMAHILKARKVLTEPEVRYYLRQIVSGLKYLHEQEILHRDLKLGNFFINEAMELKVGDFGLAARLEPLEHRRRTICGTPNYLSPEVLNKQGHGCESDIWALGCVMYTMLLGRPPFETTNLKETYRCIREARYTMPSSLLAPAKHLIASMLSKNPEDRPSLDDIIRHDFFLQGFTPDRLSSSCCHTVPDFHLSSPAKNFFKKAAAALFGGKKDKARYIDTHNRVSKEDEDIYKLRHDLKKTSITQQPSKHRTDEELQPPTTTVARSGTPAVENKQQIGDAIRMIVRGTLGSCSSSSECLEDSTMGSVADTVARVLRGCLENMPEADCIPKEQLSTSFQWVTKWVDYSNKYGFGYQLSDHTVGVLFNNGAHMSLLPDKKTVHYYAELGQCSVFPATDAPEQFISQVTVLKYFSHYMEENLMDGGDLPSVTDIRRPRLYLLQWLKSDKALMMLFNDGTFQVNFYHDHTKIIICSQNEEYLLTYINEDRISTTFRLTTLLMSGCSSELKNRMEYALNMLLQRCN

For `CC[C@@H]1C(=O)N(C)c2cnc(-c3c[nH]nc3-c3ccc(F)cc3F)nc2N1c1cnn(C)c1`, half-maximal inhibition in data set [1] (IC50) required 0.103 µM. Also, the remaining at 0.5 h, 1 µM was found to be 48% in data set [2], 5% in data set [3] and 13% in data set [4].
Take `CC(C)N1c2nc(-n3ccnc3-c3ccc(F)cc3)ncc2N(C)C(=O)C12CCC2`: the results for the remaining at 0.5 h, 1 µM in data set [2], in data set [3] and in data set [4] were 4%, 7% and 1%, respectively.
Regarding `CC(C)N1c2nc(-n3ccnc3-c3ccc(F)cc3)ncc2N(C)C(=O)C1(C)C`, the IC50 in data set [5] is above 100 µM; in data set [1], 2.71 µM. Moreover, the results for the remaining at 0.5 h, 1 µM in data set [2], in data set [3] and in [4] were 54%, 25% and 10%, respectively.
As to `CC[C@@H]1C(=O)N(C)c2cnc(-n3ccnc3-c3ccccc3)nc2N1C1CCCC1`, the IC50 in [1] is 0.005 µM. In addition, the remaining at 0.5 h, 1 µM in data set [2], in data set [3] and in data set [4] was 0% each time. The same compound registered a solubility in [6] of 100 µM (≈ 40.3 µg/mL). In addition, the apparent permeability from apical to basolateral (Papp A→B) at 2 h, 5 µM in data set [7] turned out to be 114 nm/s.
Regarding `CC[C@@H]1C(=O)N(C)c2cnc(-c3c[nH]nc3-c3nccs3)nc2N1C(C)C`, the results for the remaining at 0.5 h, 1 µM in data set [2], in data set [3] and in data set [4] were 38%, 33% and 38%, respectively. The compound also gave a solubility in data set [6] of 100 µM (≈ 38.3 µg/mL). The Papp A→B at 2 h, 5 µM in [7] worked out at 183 nm/s.
As for `CC[C@@H]1C(=O)N(C)c2cnc(-n3ccnc3-c3ccccc3)nc2N1C(C)C`, the remaining at 0.5 h, 1 µM in [2] was 14%; in data set [3], 12%; in [4], 0%. Besides, the logP entry in data set [8] is “Not Active”.
On to `CC[C@@H]1C(=O)N(C)c2cnc(-n3ccnc3-c3ccccc3)nc2N1CCC(F)(F)F`, for which the remaining at 0.5 h, 1 µM in data set [2] worked out at 0%; in [3], 2%; in data set [4] it was 0%. For the same compound, the logP in data set [8] (read-out: logP) is 3.1.
Regarding `CC[C@@H]1C(=O)N(C)c2cnc(-n3ccnc3-c3ccc(F)cc3)nc2N1CCC(F)(F)F`, the remaining at 0.5 h, 1 µM in [2] came to 27%; in data set [3], 32%; in data set [4], 30%. For the same compound, the logP in data set [8] (read-out: logP) amounted to 3.1. The Papp A→B at 2 h, 5 µM in data set [7] stood at 158 nm/s.
`CC[C@@H]1C(=O)N(C)c2cnc(-n3ccnc3-c3ccc(F)cc3)nc2N1C1CC(F)(F)C1`: the remaining at 0.5 h, 1 µM came to 19% in data set [2], 30% in data set [3] and 14% in data set [4]. The logP in data set [8] (read-out: logP) is 3.
For `CC[C@@H]1C(=O)N(C)c2cnc(-n3ccnc3-c3ccc(F)cc3)nc2N1C1COC1`, the IC50 in [5] is above 50 µM; in data set [1] it was 1.04 µM. Also, the results for the remaining at 0.5 h, 1 µM in data set [2], in [3] and in data set [4] were 74%, 74% and 80%, respectively. Besides, the logP in data set [8] (read-out: logP) stood at 1.6.
Take `CC[C@@H]1C(=O)N(C)c2cnc(-n3ccnc3-c3ccccc3)nc2N1[C@H]1CCOC1`: the remaining at 0.5 h, 1 µM in data set [2] is 17%; in data set [3], 51%; in [4], 13%. Moreover, the logP in data set [8] (read-out: logP) came out at 1.9.
Turning to `CC[C@@H]1C(=O)N(C)c2cnc(-n3ccnc3-c3ccccc3)nc2N1[C@@H]1CCOC1`, the remaining at 0.5 h, 1 µM in data set [2] was found to be 10%; in data set [3], 27%; in data set [4], 0%. Also, the logP in data set [8] (read-out: logP) amounted to 1.8.
`CC[C@@H]1C(=O)N(C)c2cnc(-n3ccnc3-c3ccc(F)cc3)nc2N1[C@H]1CCOC1`: the IC50 worked out at 0.033 µM in [1] and 2.05 µM in [9]. Moreover, the remaining at 0.5 h, 1 µM was found to be 58% in [2], 63% in data set [3] and 67% in [4]. For the same compound, the lipophilicity (logP) in data set [8] (read-out: logP) is 2. Further, the Papp A→B at 2 h, 5 µM in data set [7] amounted to 234 nm/s.
As for `CC[C@@H]1C(=O)N(C)c2cnc(-n3ccnc3-c3ccccc3)nc2N1c1cncnc1`, the IC50 in [1] was 0.044 µM. Also, the remaining at 0.5 h, 1 µM worked out at 55% in [2], 60% in [3] and 76% in data set [4]. Further, the logP in [8] (read-out: logP) was found to be 1.3.
For `CC[C@@H]1C(=O)N(C)c2cnc(-n3ccnc3-c3ccc(F)cc3)nc2N1c1cn[nH]c1`, the remaining at 0.5 h, 1 µM in data set [2] amounted to 73%; in data set [3], 66%; in [4] it was 82%. In data set [8] (read-out: logP), the logP is 1.8. For the same compound, the Papp A→B at 2 h, 5 µM in data set [7] came to 87 nm/s.
Consider `CC[C@@H]1C(=O)N(C)c2cnc(-n3ccnc3-c3ccc(F)cc3)nc2N1c1cnn(C)c1`, for which the remaining at 0.5 h, 1 µM stood at 69% in [2], 50% in [3] and 86% in data set [4]. Also, the logP in data set [8] (read-out: logP) was found to be 2. Further, the apical-to-basolateral permeability (Papp A→B) at 2 h, 5 µM in data set [7] was found to be 212 nm/s.
For the compound `CC[C@@H]1C(=O)N(C)c2cnc(-n3ccnc3-c3ccc(F)cc3)nc2N1c1ccnn1C`, the remaining at 0.5 h, 1 µM in data set [2] was found to be 74%; in data set [3], 72%; in data set [4] it was 80%. Also, the logP in data set [8] (read-out: logP) is 1.9.
Regarding `CC[C@@H]1C(=O)N(C)c2cnc(-c3cn[nH]c3-c3nccs3)nc2N1C1CCOCC1`, the remaining at 0.5 h, 1 µM in data set [2] amounted to 47%; in [3], 44%; in data set [4], 39%. For the same compound, the Papp A→B at 2 h, 5 µM in [7] was 189 nm/s.
`CC[C@@H]1C(=O)N(C)c2cnc(-c3c[nH]nc3-c3nccs3)nc2N1[C@H]1CCOC1`: the results for the IC50 in [1] and in data set [9] were 0.039 µM and 3.19 µM, respectively. Moreover, the remaining at 0.5 h, 1 µM in data set [2] was 51%; in data set [3] it was 47%; in [4], 39%. The Papp A→B at 2 h, 5 µM in data set [7] turned out to be 168 nm/s.
For `CC[C@@H]1C(=O)N(C)c2cnc(-c3cn[nH]c3-c3nccs3)nc2N1c1cn[nH]c1`, the remaining at 0.5 h, 1 µM in data set [2] is 84%; in [3] it was 57%; in data set [4] it was 48%. The Papp A→B at 2 h, 5 µM in [7] was determined as 66 nm/s.
Take `CCC1C(=O)N(C)c2cnc(-c3cn[nH]c3-c3ccccn3)nc2N1c1cnn(C)c1` (racemic): the IC50 in data set [1] was determined as 0.168 µM. Also, the remaining at 0.5 h, 1 µM in data set [2] was found to be 88%; in data set [3], 64%; in data set [4], 87%. Further, in data set [7], the Papp A→B at 2 h, 5 µM turned out to be 101 nm/s.
In the case of `CN1C(=O)C(CC(F)(F)F)N(CCC(F)(F)F)c2nc(-n3ccnc3-c3ccc(F)cc3)ncc21` (racemic), the remaining at 0.5 h, 1 µM in data set [2] worked out at 15%; in data set [3], 42%; in [4], 30%.
Taken in the same sequence, the figures for `CCC1(C)C(=O)N(C)c2cnc(-n3ccnc3-c3ccc(F)cc3)nc2N1CCC(F)(F)F` (racemic) were 17%, 29% and 34%.
Take `CCC1C(=O)N(C)c2cnc(-n3ccnc3-c3ccccc3)nc2N1c1cncnc1` (racemic): the Papp A→B at 2 h, 5 µM in data set [7] turned out to be 122 nm/s. The midpoint of inhibition in [9], the IC50, lay at 3.87 µM.
On to `CCC1C(=O)N(C)c2cnc(-n3ccnc3-c3ccc(F)cc3)nc2N1C1CCC(F)(F)C1` (racemic), for which the remaining at 0.5 h, 1 µM in data set [2] was 6%; in data set [3] it was 15%; in [4] it was 8%. In addition, in data set [8] (read-out: logP), the logP stood at 3.1.
In data set [1], `CCC1C(=O)N(C)c2cnc(-n3ccnc3-c3ccccc3)nc2N1c1ccccc1` (racemic) returned an IC50 of 0.017 µM. Further, the results for the remaining at 0.5 h, 1 µM in data set [2], in data set [3] and in [4] were 21%, 28% and 5%, respectively. In addition, the logP in [8] (read-out: logP) came to 3.3.
As to `CCC1C(=O)N(C)c2cnc(-n3ccnc3-c3ccc(F)cc3)nc2N1c1ccc(F)cc1` (racemic), the remaining at 0.5 h, 1 µM in data set [2] came out at 47%; in data set [3], 41%; in [4], 11%. For the same compound, the logP in data set [8] (read-out: logP) was determined as 3.4.
For the compound `CCC1C(=O)N(C)c2cnc(-n3ccnc3-c3ccc(F)cc3)nc2N1c1ccc(C#N)cc1` (racemic), in [1], the IC50 came out at 0.031 µM. The remaining at 0.5 h, 1 µM was determined as 63% in data set [2], 49% in [3] and 48% in [4]. Moreover, the logP in data set [8] (read-out: logP) is 2.7.
Take `CCC1C(=O)N(C)c2cnc(-n3ccnc3-c3ccc(F)cc3)nc2N1c1cc[nH]n1` (racemic): the IC50 was found to be 0.009 µM in data set [1] and 0.74 µM in data set [9]. The remaining at 0.5 h, 1 µM is 72% in [2], 67% in data set [3] and 65% in [4]. Also, the logP in data set [8] (read-out: logP) was determined as 2.2. Further, the Papp A→B at 2 h, 5 µM in data set [7] was found to be 132 nm/s.
`CCC1C(=O)N(C)c2cnc(-c3cn[nH]c3-c3nccs3)nc2N1c1cnn(C)c1` (racemic) yielded an IC50 in data set [1] of 0.13 µM.
